Molecular target: T1, recombinant human Meningioma Expressed Antigen 5 (MGEA5), also referred to as O-GlcNAcase (OGA) (Homo sapiens, UniProt O60502)
T1 construct: Full length OGA enzyme was purchased at OnGene (cat #TP322411); purchased OnGene (so in the source)
T1 sequence (O60502 1-916): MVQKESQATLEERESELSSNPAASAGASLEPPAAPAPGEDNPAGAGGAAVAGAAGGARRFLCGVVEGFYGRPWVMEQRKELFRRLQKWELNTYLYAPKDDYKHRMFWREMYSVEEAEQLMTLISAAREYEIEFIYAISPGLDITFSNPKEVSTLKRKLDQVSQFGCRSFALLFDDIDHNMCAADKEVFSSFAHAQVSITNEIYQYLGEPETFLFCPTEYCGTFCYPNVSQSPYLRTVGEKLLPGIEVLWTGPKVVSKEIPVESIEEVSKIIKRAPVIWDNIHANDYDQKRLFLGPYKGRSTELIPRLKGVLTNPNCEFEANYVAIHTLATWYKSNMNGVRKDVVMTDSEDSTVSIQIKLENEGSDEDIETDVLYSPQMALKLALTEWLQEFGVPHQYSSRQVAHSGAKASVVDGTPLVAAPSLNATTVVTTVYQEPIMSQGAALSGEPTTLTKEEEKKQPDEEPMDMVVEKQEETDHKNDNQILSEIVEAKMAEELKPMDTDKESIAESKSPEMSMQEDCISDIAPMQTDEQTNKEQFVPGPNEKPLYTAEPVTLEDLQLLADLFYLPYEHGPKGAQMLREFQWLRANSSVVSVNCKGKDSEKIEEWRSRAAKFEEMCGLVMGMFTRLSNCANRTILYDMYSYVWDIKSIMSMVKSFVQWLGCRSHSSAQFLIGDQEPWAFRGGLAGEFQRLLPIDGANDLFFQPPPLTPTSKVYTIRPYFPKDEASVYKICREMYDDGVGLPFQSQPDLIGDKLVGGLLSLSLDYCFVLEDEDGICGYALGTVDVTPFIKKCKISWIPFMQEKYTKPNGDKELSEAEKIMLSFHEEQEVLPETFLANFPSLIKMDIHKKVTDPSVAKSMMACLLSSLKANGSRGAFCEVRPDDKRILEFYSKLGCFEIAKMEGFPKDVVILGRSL
Assay: OGA biochemical assay (inhibition of FM-GlcNAc hydrolysis, fluorescence)
Settings: for Emax: maximal effect, read-out: Enzymatic Emax (%); for IC50: read-out: Enzymatic hOGA, pIC50 (converted)
Method in brief: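 Full-length recombinant OGA (2 nM) pre-incubated with compound 60 min at room temperature, then FM-GlcNAc (100 µM final) added in citrate/phosphate buffer pH 7.2 with 0.005% Tween-20. After 6 h at room temperature, stopped with carbonate pH 11.0; fluorescein read at 485/538 nm; IC50 and Hill coefficient from curve fit.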

Emax [%] | IC50 [nM] | Compound
101 | 7.94 | Cc1cc([C@H]2CCCN(C(C)c3cnc4c(c3)OCCN4)C2)cc(C)n1 (single isomer, unassigned) [Product 135]
99 | 1.26 | Cc1cc(OC[C@H]2CCCN(C(C)c3nc4c(cc3F)OCCO4)C2)cc(C)n1 (single isomer, unassigned) [Product 155]

Source: patent publication US20210300943A1, “OGA INHIBITOR COMPOUNDS” (Janssen Pharmaceutica NV, priority 2018, published 2021)
